According to BigSolDB 2.1:

Cc1c(N)c(=O)n(-c2ccccc2)n1C
solubility (mole fraction)
Conditions	in acetone	in ethanol	in ethyl acetate	in isopropanol	in methanol	in n-butanol	in n-propanol	in sec-butanol	in water
299.05 K	0.37	0.22	0.08	0.19	0.23	0.15	0.21	0.14	0.13
303.15 K	0.4	0.25	0.09	0.22	0.25	0.17	0.24	0.16	0.15
307.25 K	0.43	0.28	0.11	0.25	0.28	0.19	0.28	0.18	0.17
311.05 K	0.44	0.31	0.13	0.29	0.31	0.21	0.31	0.2	0.19
315.15 K	0.47	0.35	0.15	0.32	0.34	0.24	0.35	0.23	0.22
321.05 K	0.52	0.41	0.2	0.38	0.39	0.29	0.41	0.27	0.27
327.15 K	0.55	0.48	0.25	0.45	0.44	0.34	0.46	0.31	0.33
338.35 K	0.62	0.6	0.36	0.57	0.57	0.46	0.59	0.41	0.44
